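Step 1: Grow cells in 96-well plates. Step 2: Expose to compound for 48 hours at 5 concentrations. Step 3: Interpolate endpoints linearly; if unreached, use highest concentration. GI50 = concentration required for 50% inhibition of growth.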 Active and inactive are the calls of the source. No stated cut-off is given here; in the data, active = GI50 up to about 1.1 µM and inactive = higher.
Key:
Test in all cases: NCI tumour cell line growth inhibition, 48 h
SNB-78 = test system: SNB-78
HOP-92 = test system: HOP-92
UACC-62 = test system: UACC-62
RXF 393 = test system: RXF 393
NCI-H522 = test system: NCI-H522
HOP-18 = test system: HOP-18
SK-MEL-2 = test system: SK-MEL-2
KM12 = test system: KM12
UACC-257 = test system: UACC-257
SK-MEL-28 = test system: SK-MEL-28
SF-268 = test system: SF-268
NCI-H460 = test system: NCI-H460
OVCAR-5 = test system: OVCAR-5
U-251 = test system: U-251
HCT-15 = test system: HCT-15
CCRF-CEM = test system: CCRF-CEM
M14 = test system: M14
DMS-273 = test system: DMS-273
OVCAR-8 = test system: OVCAR-8
HT-29 = test system: HT-29
HOP-62 = test system: HOP-62
KM-20L2 = test system: KM-20L2
Malme-3M = test system: Malme-3M
DMS-114 = test system: DMS-114
A549 = test system: A549
NCI-H23 = test system: NCI-H23
A498 = test system: A498
ACHN = test system: ACHN
RPMI-8226 = test system: RPMI-8226
CAKI-1 = test system: CAKI-1
SF-539 = test system: SF-539
M19-MEL = test system: M19-MEL
786-0 = test system: 786-0
OVCAR-3 = test system: OVCAR-3
OVCAR-4 = test system: OVCAR-4
SNB-19 = test system: SNB-19
UO-31 = test system: UO-31
SR = test system: SR
LXFL 529 = test system: LXFL 529
NCI-H226 = test system: NCI-H226
SNB-75 = test system: SNB-75
HCC 2998 = test system: HCC 2998
DLD-1 = test system: DLD-1
EKVX = test system: EKVX
LOX IMVI = test system: LOX IMVI
HCT-116 = test system: HCT-116
SK-MEL-5 = test system: SK-MEL-5
TK-10 = test system: TK-10
HL-60 = test system: HL-60
SF-295 = test system: SF-295
SK-OV-3 = test system: SK-OV-3
IGROV-1 = test system: IGROV-1
COLO 205 = test system: COLO 205
SW-620 = test system: SW-620
K562 = test system: K562
SN12C = test system: SN12C
MOLT-4 = test system: MOLT-4

Measured: GI50

C=CCc1ccc(Oc2cc(CC=C)c3c(c2O)O[C@@H](CO)[C@H]3c2ccc(O)c(-c3cc(CC=C)ccc3O)c2)cc1
inactive: SNB-78 52 µM | HOP-92 52.2 µM | UACC-62 30.1 µM | RXF 393 65.2 µM | NCI-H522 18.3 µM | HOP-18 > 100 µM | SK-MEL-2 24.3 µM | KM12 35.3 µM | UACC-257 > 100 µM | SK-MEL-28 25.8 µM | SF-268 58.7 µM | NCI-H460 24 µM | OVCAR-5 > 100 µM | U-251 23.1 µM | CCRF-CEM 20.5 µM | M14 47.6 µM | DMS-273 42.9 µM | OVCAR-8 41.7 µM | HT-29 23.4 µM | HOP-62 55.7 µM | KM-20L2 32.9 µM | Malme-3M > 100 µM | DMS-114 22.5 µM | A549 > 100 µM | NCI-H23 47.3 µM | A498 80 µM | ACHN 67 µM | RPMI-8226 32.5 µM | CAKI-1 > 100 µM | SF-539 40.9 µM | M19-MEL 42.2 µM | 786-0 54 µM | OVCAR-3 33 µM | OVCAR-4 54.7 µM | SNB-19 39.5 µM | UO-31 77.1 µM | SR 12.4 µM | LXFL 529 30.8 µM | NCI-H226 67.1 µM | SNB-75 > 100 µM | HCC 2998 45.9 µM | DLD-1 52.1 µM | EKVX 46.7 µM | LOX IMVI 16.5 µM | HCT-116 61.9 µM | SK-MEL-5 87.3 µM | TK-10 > 100 µM | HL-60 23.8 µM | SF-295 67.1 µM | SK-OV-3 > 100 µM | IGROV-1 32.7 µM | COLO 205 52 µM | SW-620 33.9 µM | K562 37.6 µM | SN12C 41.9 µM
30.2 µM: HCT-15

COc1ccccc1-n1c(C)nc2ccccc2c1=O
inactive: SNB-78 > 100 µM | HOP-92 > 100 µM | UACC-62 > 100 µM | RXF 393 > 100 µM | NCI-H522 > 100 µM | HOP-18 > 100 µM | SK-MEL-2 > 100 µM | KM12 > 100 µM | UACC-257 > 100 µM | SK-MEL-28 > 100 µM | SF-268 > 100 µM | NCI-H460 > 100 µM | OVCAR-5 > 100 µM | U-251 > 100 µM | MOLT-4 > 100 µM | CCRF-CEM > 100 µM | M14 > 100 µM | DMS-273 > 100 µM | OVCAR-8 > 100 µM | HT-29 > 100 µM | HOP-62 > 100 µM | KM-20L2 > 100 µM | Malme-3M > 100 µM | DMS-114 > 100 µM | A549 > 100 µM | NCI-H23 > 100 µM | A498 > 100 µM | ACHN > 100 µM | CAKI-1 > 100 µM | SF-539 > 100 µM | M19-MEL > 100 µM | 786-0 > 100 µM | OVCAR-3 > 100 µM | OVCAR-4 > 100 µM | SNB-19 > 100 µM | UO-31 > 100 µM | SR > 100 µM | LXFL 529 > 100 µM | NCI-H226 > 100 µM | SNB-75 > 100 µM | HCC 2998 > 100 µM | DLD-1 > 100 µM | EKVX > 100 µM | LOX IMVI > 100 µM | HCT-116 > 100 µM | SK-MEL-5 > 100 µM | TK-10 > 100 µM | HL-60 > 100 µM | SF-295 > 100 µM | SK-OV-3 > 100 µM | IGROV-1 > 100 µM | COLO 205 > 100 µM | SW-620 > 100 µM | K562 > 100 µM | SN12C > 100 µM
> 100 µM: HCT-15

CCCCCCCCCCCC(=O)OCCOCCOCCOCCOCCOCc1ccccc1
> 100 µM: HCT-15
inactive: SNB-78 > 100 µM | HOP-92 > 100 µM | UACC-62 > 100 µM | RXF 393 > 100 µM | NCI-H522 > 100 µM | HOP-18 > 100 µM | SK-MEL-2 > 100 µM | KM12 > 100 µM | UACC-257 > 100 µM | SK-MEL-28 > 100 µM | SF-268 > 100 µM | NCI-H460 > 100 µM | OVCAR-5 > 100 µM | U-251 > 100 µM | MOLT-4 > 100 µM | CCRF-CEM > 100 µM | M14 > 100 µM | DMS-273 > 100 µM | OVCAR-8 > 100 µM | HT-29 > 100 µM | HOP-62 > 100 µM | KM-20L2 > 100 µM | Malme-3M > 100 µM | DMS-114 > 100 µM | A549 > 100 µM | NCI-H23 > 100 µM | A498 > 100 µM | ACHN > 100 µM | RPMI-8226 > 100 µM | CAKI-1 > 100 µM | M19-MEL > 100 µM | 786-0 > 100 µM | OVCAR-3 > 100 µM | OVCAR-4 > 100 µM | SNB-19 > 100 µM | UO-31 > 100 µM | SR > 100 µM | LXFL 529 > 100 µM | NCI-H226 > 100 µM | SNB-75 > 100 µM | HCC 2998 > 100 µM | DLD-1 > 100 µM | EKVX > 100 µM | LOX IMVI > 100 µM | HCT-116 > 100 µM | SK-MEL-5 > 100 µM | TK-10 > 100 µM | HL-60 34.4 µM | SF-295 > 100 µM | SK-OV-3 > 100 µM | IGROV-1 > 100 µM | COLO 205 > 100 µM | SW-620 > 100 µM | K562 > 100 µM | SN12C > 100 µM

From ChEMBL document CHEMBL1201862, “PubChem BioAssay data set” (2004)
